Test results published in ChEMBL document CHEMBL4819024, “Synthesis and evaluation of andrographolide derivatives as potent anti-osteoporosis agents in vitro and in vivo” (Eur J Med Chem, 2021).
The source made the active and inactive calls. No cut-off for these calls is given here.

How the values were obtained:
BMMC [1] = assay: Anti-osteoporosis activity in C57BL/6 mouse BMM cells assessed as inhibition of M-CSF/RANKL-induced osteoclastogenesis by measuring reduction in multinucleated TRAP+ cells incubated for 5 days with media replenishment for every 48 hrs measured by TRAP-staining based analysis; format: functional, cell-based; conditions: C57BL/6, BMMC
[2] = Cytotoxicity against C57BL/6 mouse BMM cells assessed as reduction in cell viability measured after 48 hrs in presence of M-CSF by CCK8 assay; format: cell-based, BMMC; conditions: BMM cells (bone marrow-derived)
Mus musculus [3] = assay: Antiosteoporotic activity against OVX-induced bone loss C57BL/6 mouse model assessed as increase in trabecular number in femoral metaphysis at 10 mg/kg, po QD for 4 weeks; format: functional, organism-based; conditions: dose 10.0 mg/kg/day
Mus musculus [4] = assay: Antiosteoporotic activity against OVX-induced bone loss C57BL/6 mouse model assessed as decrease in ACP5 level in serum at 10 mg/kg, po QD for 4 weeks; format: functional, organism-based; conditions: dose 10.0 mg/kg/day
Mus musculus [5] = assay: Antiosteoporotic activity against OVX-induced bone loss C57BL/6 mouse model assessed as decrease in trabecular spacing in femoral metaphysis at 10 mg/kg, po QD for 4 weeks; format: functional, organism-based; conditions: dose 10.0 mg/kg/day
Mus musculus [6] = assay: Antiosteoporotic activity against OVX-induced bone loss C57BL/6 mouse model assessed as increase in trabecular thickness in femoral metaphysis at 10 mg/kg, po QD for 4 weeks; format: functional, organism-based; conditions: dose 10.0 mg/kg/day
Mus musculus [7] = assay: Antiosteoporotic activity against OVX-induced bone loss C57BL/6 mouse model assessed as increase in bone volume/total bone volume in femoral metaphysis at 10 mg/kg, po QD for 4 weeks; format: functional, organism-based; conditions: dose 10.0 mg/kg/day
BMMC [8] = assay: Anti-osteoporosis activity in C57BL/6 mouse BMM cells assessed as inhibition of M-CSF/RANKL-induced bone resorption by measuring suppression of reabsorbing pits formation after 48 hrs by hydroxyapatite assay using Leica inverted microscope; format: functional, cell-based; conditions: dose 1-10 µM

Row | Structure (SMILES) | IC50 (BMMC [1]) [nM] | also measured
1 | NCCCC(O)(P(=O)(O)O)P(=O)(O)O [ALENDRONATE SODIUM] | 1710 | –
2 | C=C1CC[C@@H]2[C@](C)(CO)[C@H](O)CC[C@@]2(C)[C@@H]1/C=C/C1=CCOC1=O | 8340 | CC50 at 48 h [2]: > 30000 nM
3 | C=C1CC[C@H]2[C@@](C)(CC[C@@H](O)[C@@]2(C)C(=O)NCCc2cccs2)[C@@H]1/C=C/C1=CCOC1=O | > 30000 | –
4 | C=C1CC[C@H]2[C@@](C)(CC[C@@H](O)[C@@]2(C)C(=O)NCc2ccc(Br)cc2)[C@@H]1/C=C/C1=CCOC1=O | 3450 | –
5 | C=C1CC[C@@H]2[C@](C)(CO)[C@H](O)CC[C@@]2(C)[C@@H]1C/C=C1/C(=O)OC[C@H]1O [ANDROGRAPHOLIDE] | 1010 | Activity (Mus musculus [3]): Active; Activity (Mus musculus [4]): Active; CC50 at 48 h [2]: 10300 nM; Activity (Mus musculus [5]): Active; Activity (Mus musculus [6]): Active; Activity (Mus musculus [7]): Active; Activity (BMMC [8]): Active
6 | C=C1CC[C@H]2[C@@](C)(CC[C@@H](O)[C@@]2(C)C(=O)NCCc2ccc(F)cc2)[C@@H]1/C=C/C1=CCOC1=O | > 30000 | –
7 | C=C1CC[C@@H]2[C@](C)(CNCc3ccc(C)cc3)[C@H](O)CC[C@@]2(C)[C@@H]1/C=C/C1=CCOC1=O | 740 | –
8 | C=C1CC[C@H]2[C@@](C)(CC[C@@H](O)[C@@]2(C)C(=O)NCc2ccc(OC)cc2)[C@@H]1/C=C/C1=CCOC1=O | 6530 | –
9 | C=C1CC[C@@H]2[C@](C)(CNCCc3ccc(F)cc3)[C@H](O)CC[C@@]2(C)[C@@H]1/C=C/C1=CCOC1=O | 480 | –
10 | C=C1CC[C@@H]2[C@](C)(CNCCc3cccc(OC)c3)[C@H](O)CC[C@@]2(C)[C@@H]1/C=C/C1=CCOC1=O | 5450 | –
11 | C=C1CC[C@@H]2[C@](C)(CNCc3ccc(OC)c(OC)c3)[C@H](O)CC[C@@]2(C)[C@@H]1/C=C/C1=CCOC1=O | 3740 | –
12 | C=C1CC[C@@H]2[C@](C)(CNCc3cccs3)[C@H](O)CC[C@@]2(C)[C@@H]1/C=C/C1=CCOC1=O | 1070 | –
13 | C=C1CC[C@@H]2[C@](C)(CNCc3nccs3)[C@H](O)CC[C@@]2(C)[C@@H]1/C=C/C1=CCOC1=O | 700 | –
14 | C=C1CC[C@@H]2[C@](C)(CNCc3ccc(Cl)cc3)[C@H](O)CC[C@@]2(C)[C@@H]1/C=C/C1=CCOC1=O | 420 | –
15 | C=C1CC[C@@H]2[C@](C)(CO)[C@H](O)CC[C@@]2(C)[C@@H]1C/C=C(/C(=O)O)[C@H](O)CO | > 30000 | CC50 at 48 h [2]: > 30000 nM
16 | C=C1CC[C@H]2[C@@](C)(CC[C@@H](O)[C@@]2(C)C(=O)NCCc2ccc(OC)cc2)[C@@H]1/C=C/C1=CCOC1=O | > 30000 | –
17 | C=C1CC[C@@H]2[C@](C)(CNCc3ccncc3)[C@H](O)CC[C@@]2(C)[C@@H]1/C=C/C1=CCOC1=O | 2030 | –
18 | C=C1CC[C@@H]2[C@](C)(CNCc3cccc(OC)c3)[C@H](O)CC[C@@]2(C)[C@@H]1/C=C/C1=CCOC1=O | 780 | –

Row | Structure (SMILES) | IC50 (BMMC [1]) [nM] | also measured
19 | C=C1CC[C@@H]2[C@](C)(CNCc3ccc(O)c(O)c3)[C@H](O)CC[C@@]2(C)[C@@H]1/C=C/C1=CCOC1=O | 9440 | –
20 | C=C1CC[C@@H]2[C@](C)(CO)[C@H](O)CC[C@@]2(C)[C@@H]1CC=O | > 30000 | CC50 at 48 h [2]: > 30000 nM
21 | C=C1CC[C@@H]2[C@](C)(CNCc3ccc(C#N)cc3)[C@H](O)CC[C@@]2(C)[C@@H]1/C=C/C1=CCOC1=O | 1130 | –
22 | C=C1CC[C@@H]2[C@](C)(CNCc3ccccc3)[C@H](O)CC[C@@]2(C)[C@@H]1/C=C/C1=CCOC1=O | 960 | –
23 | C=C1CC[C@H]2[C@@](C)(CC[C@@H](O)[C@@]2(C)C(=O)NCc2ccccc2)[C@@H]1/C=C/C1=CCOC1=O | 19400 | –
24 | C=C1CC[C@@H]2[C@](C)(CNCc3ccc(Br)cc3)[C@H](O)CC[C@@]2(C)[C@@H]1/C=C/C1=CCOC1=O | 430 | –
25 | C=C1CC[C@@H]2[C@](C)(CNCc3ccc([N+](=O)[O-])cc3)[C@H](O)CC[C@@]2(C)[C@@H]1/C=C/C1=CCOC1=O | 1340 | –
26 | C=C1CC[C@@H]2[C@](C)(CNCc3ccco3)[C@H](O)CC[C@@]2(C)[C@@H]1/C=C/C1=CCOC1=O | 1830 | –
27 | C=C1CC[C@@H]2[C@](C)(CNCCc3ccc(C(F)(F)F)cc3)[C@H](O)CC[C@@]2(C)[C@@H]1/C=C/C1=CCOC1=O | 2980 | –
28 | C=C1CC[C@H]2[C@@](C)(CC[C@@H](O)[C@@]2(C)C(=O)NCCc2ccccc2)[C@@H]1/C=C/C1=CCOC1=O | > 30000 | –
29 | C=C1CC[C@@H]2[C@](C)(CNCCc3ccc(C)cc3)[C@H](O)CC[C@@]2(C)[C@@H]1/C=C/C1=CCOC1=O | 870 | –
30 | C=C1CC[C@@H]2[C@](C)(CNCCc3ccccc3)[C@H](O)CC[C@@]2(C)[C@@H]1/C=C/C1=CCOC1=O | 1020 | –
31 | C=C1CC[C@@H]2[C@](C)(CO)[C@H](O)CC[C@@]2(C)[C@@H]1CCC1C(=O)OC[C@H]1O (stereo partly drawn) | > 30000 | CC50 at 48 h [2]: > 30000 nM
32 | C=C1CC[C@@H]2[C@](C)(CNCc3ccc4c(c3)CC=N4)[C@H](O)CC[C@@]2(C)[C@@H]1/C=C/C1=CCOC1=O | 550 | –
33 | C=C1CC[C@@H]2[C@](C)(CNCc3ccc(OC)cc3)[C@H](O)CC[C@@]2(C)[C@@H]1/C=C/C1=CCOC1=O | 750 | –
34 | C=C1CC[C@@H]2[C@](C)(CNCCc3cccs3)[C@H](O)CC[C@@]2(C)[C@@H]1/C=C/C1=CCOC1=O | 3020 | –
35 | C=C1CC[C@@H]2[C@](C)(CO)[C@H](O)CC[C@@]2(C)[C@@H]1C/C=C1\C=COC1=O | 2770 | CC50 at 48 h [2]: 20600 nM
36 | C=C1CC[C@@H]2[C@](C)(CNCCc3ccc(OC)cc3)[C@H](O)CC[C@@]2(C)[C@@H]1/C=C/C1=CCOC1=O | 1880 | –
